{"source": "paper PMC4022547", "about": "(Molecular Brain, 2014)", "key": {"[1]": {"target": "hα6(A112V) + WT hβ2 + hβ3^V9’S nAChR (Homo sapiens, UniProt P17787+Q15825, A112V)", "conditions": "100 μM nicotine; 3 days after cRNA injection", "experimental": "(§1) We planned to introduce identical amounts of cRNA, presumably producing equal amounts of each subunit protein, into oocytes largely due to lack of information about the levels of mRNA for each subunits that compose α6*-nAChRs in neurons or other cells. Concentrations of cRNAs for each nAChR α and β subunits (WT, mutant or variant) were adjusted to 500 ng μL^−1. We provisionally assumed that hα6 or its variants in association with hβ2 or hβ4 subunits would form complexes having 2:3 and/or 3:2 ratios of the indicated subunits and that oocytes also injected with WT or mutant form of β3 subunits (i.e., β3^V9’S) would express nAChR with 2:2:1 ratios of α:β:(β3 or β3^V9’S) subunits. For expression of binary nAChRs (i.e., two subunit containing nAChRs; α + β but not β3) cRNA mixtures were prepared by mixing 1 μL of cRNA for each subunit and an additional μL of RNAse free water (i.e., total volume 3 μL). Similarly for expression of ternary nAChRs [i.e., three subunit containing nAChRs; (α + β) + (β3 or β3^V9’S)] cRNA mixtures were prepared by mixing 1 μL of cRNA for each subunit. Several preparations of each mixture were prepared and stored at −80°C until further use. Injection of 138 nL of cRNA, out of 3 μL cRNA mixtures, into each oocyte would deliver ~23 ng of cRNA for each subunit whether binary or ternary nAChRs are expressed.\n(§2) Two to 5 days after injection, oocytes were placed in a small-volume chamber and continuously perfused with OR2. The chamber was grounded through an agarose bridge. The oocytes were voltage-clamped at −70 mV (unless otherwise noted) to measure agonist or antagonist induced currents using Axoclamp 900A and pClamp 10.2 software (Molecular Devices, Sunnyvale, CA). The current signal was low-pass filtered at 10 Hz with the built-in low-pass Bessel filter in the Axoclamp 900A and digitized at 20 Hz with Axon Digidata1440A and pClamp10. […] Drugs (agonists and antagonists) were prepared daily in OR2. Drug was applied using a Valvelink 8.2 perfusion system (Automate scientific, Berkeley, CA). […] Then for the purpose of comparison electrophysiological recordings were performed in a given day in a given batch of oocytes following the same order of injections. […] All hβ4*-nAChR recordings were done in similar conditions to facilitate comparisons between hα6hβ4- and hα6hβ4hβ3-nAChRs. All electrophysiological measurements were conducted or checked in at least two batches of oocytes.\n(§3) Raw data was collected and processed in part using pClamp 10.2 (Molecular Devices, Sunnyvale, CA), Origin 7.5 (OriginLab Corporation, Northampton, MA) and a spreadsheet (Excel; Microsoft, Bellevue, WA). Peak current amplitudes (Imax) are reported as mean ± SEM (for results from at least three oocytes, i.e., n = 3)."}, "[2]": {"target": "hα6(A184D) + codon optimized hβ2 + hβ3^V9’S nAChR (Homo sapiens, UniProt P17787+Q15825, A184D)", "conditions": "100 μM nicotine; oocytes clamped at −70 mV", "experimental": "as §1, §2, §3"}, "[3]": {"test_system": "hα6(D199Y) + WT hβ2 + hβ3^V9’S nAChR", "conditions": "100 μM nicotine; higher, p < 0.05", "experimental": "as §1, §2, §3"}, "[4]": {"target": "hα6(D57N) + WT hβ2 + hβ3^V9’S nAChR (Homo sapiens, UniProt P17787+Q15825, D57N)", "sequence (Q15825 26-494 D57N)": "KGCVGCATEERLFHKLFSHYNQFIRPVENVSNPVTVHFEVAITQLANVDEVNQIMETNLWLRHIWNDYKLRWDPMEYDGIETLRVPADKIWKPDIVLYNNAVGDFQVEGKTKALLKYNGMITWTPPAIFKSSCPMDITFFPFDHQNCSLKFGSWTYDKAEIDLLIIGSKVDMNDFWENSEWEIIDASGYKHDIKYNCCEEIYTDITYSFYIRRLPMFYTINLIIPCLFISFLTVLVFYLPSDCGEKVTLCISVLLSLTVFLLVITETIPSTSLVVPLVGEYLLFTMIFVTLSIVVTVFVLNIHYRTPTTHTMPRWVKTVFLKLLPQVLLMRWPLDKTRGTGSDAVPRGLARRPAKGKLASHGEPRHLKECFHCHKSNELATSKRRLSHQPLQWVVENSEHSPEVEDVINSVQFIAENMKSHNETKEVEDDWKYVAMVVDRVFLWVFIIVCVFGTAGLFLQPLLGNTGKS", "sequence (P17787 26-502)": "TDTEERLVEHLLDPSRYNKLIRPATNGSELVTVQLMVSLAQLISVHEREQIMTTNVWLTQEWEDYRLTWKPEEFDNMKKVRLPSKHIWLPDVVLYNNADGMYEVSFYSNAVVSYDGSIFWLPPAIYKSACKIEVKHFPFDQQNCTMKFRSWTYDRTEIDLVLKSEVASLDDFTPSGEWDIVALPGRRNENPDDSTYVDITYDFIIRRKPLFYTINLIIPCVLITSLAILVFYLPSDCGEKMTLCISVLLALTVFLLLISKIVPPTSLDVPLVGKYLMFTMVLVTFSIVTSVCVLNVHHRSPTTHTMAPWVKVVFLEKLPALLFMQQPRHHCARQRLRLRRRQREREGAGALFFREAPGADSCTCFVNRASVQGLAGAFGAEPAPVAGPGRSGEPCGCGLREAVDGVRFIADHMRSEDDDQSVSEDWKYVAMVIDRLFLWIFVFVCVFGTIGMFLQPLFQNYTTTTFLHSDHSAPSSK", "sequence (Q05901 25-458 V273S partner limits assumed)": "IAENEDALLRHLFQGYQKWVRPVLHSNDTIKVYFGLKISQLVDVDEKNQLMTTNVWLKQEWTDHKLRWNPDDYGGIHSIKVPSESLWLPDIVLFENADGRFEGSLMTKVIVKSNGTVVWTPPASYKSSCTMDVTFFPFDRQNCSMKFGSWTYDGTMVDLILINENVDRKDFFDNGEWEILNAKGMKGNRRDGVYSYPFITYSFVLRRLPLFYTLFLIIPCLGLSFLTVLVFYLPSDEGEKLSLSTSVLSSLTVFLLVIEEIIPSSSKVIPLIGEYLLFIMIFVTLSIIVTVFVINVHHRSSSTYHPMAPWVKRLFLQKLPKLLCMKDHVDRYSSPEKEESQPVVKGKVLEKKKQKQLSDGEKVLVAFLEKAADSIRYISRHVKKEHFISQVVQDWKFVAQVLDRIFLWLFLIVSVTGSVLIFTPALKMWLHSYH", "conditions": "nicotine", "experimental": "as §1, §2, §3"}, "[5]": {"target": "hα6(D57N) + hβ4 + hβ3 nAChR (Homo sapiens, UniProt P30926+Q15825, D57N)", "sequence (Q15825 26-494 D57N)": "as the sequence (Q15825 26-494 D57N) above", "sequence (P30926 22-498)": "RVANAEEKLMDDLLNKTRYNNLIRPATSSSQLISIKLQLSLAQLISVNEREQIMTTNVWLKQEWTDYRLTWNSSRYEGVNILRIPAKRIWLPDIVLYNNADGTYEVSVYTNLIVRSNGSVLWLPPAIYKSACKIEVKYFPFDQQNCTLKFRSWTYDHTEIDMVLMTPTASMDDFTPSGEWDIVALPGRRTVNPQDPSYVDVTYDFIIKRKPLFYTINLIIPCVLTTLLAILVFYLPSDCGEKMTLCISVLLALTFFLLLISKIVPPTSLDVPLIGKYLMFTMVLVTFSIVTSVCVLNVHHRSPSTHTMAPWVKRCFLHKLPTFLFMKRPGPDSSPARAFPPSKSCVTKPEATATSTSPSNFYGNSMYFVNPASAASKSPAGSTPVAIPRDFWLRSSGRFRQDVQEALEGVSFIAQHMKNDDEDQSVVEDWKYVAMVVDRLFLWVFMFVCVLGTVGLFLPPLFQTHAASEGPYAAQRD", "conditions": "nicotine", "experimental": "as §1, §2, §3"}, "[6]": {"target": "hα6(D92E) + hβ4 + hβ3 nAChR (Homo sapiens, UniProt P30926+Q15825, D92E)", "conditions": "100 μM nicotine; oocytes clamped at −70 mV", "experimental": "as §1, §2, §3"}, "[7]": {"target": "hα6(E101K) + WT hβ2 + hβ3^V9’S nAChR (Homo sapiens, UniProt P17787+Q15825, E101K)", "conditions": "100 μM nicotine; 3 days after cRNA injection", "experimental": "as §1, §2, §3"}, "hα6(E101K) + hβ4 nAChR": {"target": "hα6(E101K) + hβ4 nAChR (Homo sapiens, UniProt P30926+Q15825, E101K)", "conditions": "100 μM nicotine; oocytes clamped at −70 mV", "experimental": "as §1, §2, §3"}, "[8]": {"target": "hα6(I226T) + hβ4 + hβ3 nAChR (Homo sapiens, UniProt P30926+Q15825, I226T)", "conditions": "100 μM nicotine; oocytes clamped at −70 mV", "experimental": "as §1, §2, §3"}, "hα6(I226T) + hβ4 nAChR": {"target": "hα6(I226T) + hβ4 nAChR (Homo sapiens, UniProt P30926+Q15825, I226T)", "conditions": "100 μM nicotine; oocytes clamped at −70 mV", "experimental": "as §1, §2, §3"}, "[9]": {"target": "hα6(N171K) + hβ4 + hβ3 nAChR (Homo sapiens, UniProt P30926+Q15825, N171K)", "conditions": "nicotine", "experimental": "as §1, §2, §3"}, "[10]": {"target": "hα6(N203T) + WT hβ2 + hβ3^V9’S nAChR (Homo sapiens, UniProt P17787+Q15825, N203T)", "sequence (Q15825 26-494 N203T)": "as the sequence (Q15825 26-494 D57N) above, with N32D, N178T counted along it", "sequence (P17787 26-502)": "as the sequence (P17787 26-502) above", "sequence (Q05901 25-458 V273S partner limits assumed)": "as the sequence (Q05901 25-458 V273S partner limits assumed) above", "conditions": "100 μM nicotine", "experimental": "as §1, §2, §3"}, "hα6(N46K) + hβ4 nAChR": {"target": "hα6(N46K) + hβ4 nAChR (Homo sapiens, UniProt P30926+Q15825, N46K)", "sequence (Q15825 26-494 N46K)": "as the sequence (Q15825 26-494 D57N) above, with N21K, N32D counted along it", "sequence (P30926 22-498)": "as the sequence (P30926 22-498) above", "conditions": "100 μM nicotine; oocytes clamped at −70 mV", "experimental": "as §1, §2, §3"}, "[11]": {"target": "hα6(R87C) + hβ4 + hβ3 nAChR (Homo sapiens, UniProt P30926+Q15825, R87C)", "conditions": "nicotine", "experimental": "as §1, §2, §3"}, "[12]": {"target": "hα6(S156R) + WT hβ2 + hβ3^V9’S nAChR (Homo sapiens, UniProt P17787+Q15825, S156R)", "conditions": "nicotine", "experimental": "as §1, §2, §3"}, "[13]": {"target": "hα6(S43P) + WT hβ2 + hβ3^V9’S nAChR (Homo sapiens, UniProt P17787+Q15825, S43P)", "conditions": "nicotine", "experimental": "as §1, §2, §3"}, "[14]": {"target": "hα6(S43P) + hβ4 + hβ3 nAChR (Homo sapiens, UniProt P30926+Q15825, S43P)", "conditions": "100 μM nicotine; oocytes clamped at −70 mV", "experimental": "as §1, §2, §3"}, "hα6(S43P) + hβ4 nAChR": {"target": "hα6(S43P) + hβ4 nAChR (Homo sapiens, UniProt P30926+Q15825, S43P)", "conditions": "100 μM nicotine; oocytes clamped at −70 mV", "experimental": "as §1, §2, §3"}}, "data": [{"smiles": "CN1CCC[C@H]1c1cccnc1", "note": "[nicotine, L-nicotine]", "values": [{"measurement": "peak current response", "setting": "[1]", "value": "15-30 nA"}, {"measurement": "peak current (Imax, mean ± SE)", "setting": "[2]", "value": "616 ± 95", "unit": "nA"}, {"measurement": "peak current response relative to hα6hβ2hβ3^V9’S-nAChRs", "setting": "[3]", "value": "2-5 fold"}, {"measurement": "current response", "setting": "[4]", "value": "did not yield current responses"}, {"measurement": "current response", "setting": "[5]", "value": "did not elicit current responses"}, {"measurement": "Mean (±SE) peak current response", "setting": "[6]", "value": "126 ± 5", "unit": "nA"}, {"measurement": "peak current response", "setting": "[7]", "value": "15-30 nA"}, {"measurement": "peak current (Imax, mean ± SE)", "setting": "hα6(E101K) + hβ4 nAChR", "value": "73 ± 10", "unit": "nA"}, {"measurement": "Mean (±SE) peak current response", "setting": "[8]", "value": "403 ± 79", "unit": "nA"}, {"measurement": "peak current (Imax, mean ± SE)", "setting": "hα6(I226T) + hβ4 nAChR", "value": "81 ± 10", "unit": "nA"}, {"measurement": "current response", "setting": "[9]", "value": "did not elicit current responses"}, {"measurement": "peak current response", "setting": "[10]; 3 days after cRNA injection", "value": "15-30 nA"}, {"measurement": "Mean (±SEM) current response", "setting": "[10]; 5 days after injection", "value": "53 ± 12", "unit": "nA"}, {"measurement": "peak current (Imax, mean ± SE)", "setting": "hα6(N46K) + hβ4 nAChR", "value": "78 ± 11", "unit": "nA"}, {"measurement": "current response", "setting": "[11]", "value": "did not elicit current responses"}, {"measurement": "current response", "setting": "[12]", "value": "did not yield current responses"}, {"measurement": "current response", "setting": "[13]", "value": "did not yield current responses"}, {"measurement": "Mean (±SE) peak current response", "setting": "[14]", "value": "208 ± 22", "unit": "nA"}, {"measurement": "peak current (Imax, mean ± SE)", "setting": "hα6(S43P) + hβ4 nAChR", "value": "39 ± 5", "unit": "nA"}]}]}
